Laboratory results reported in patent publication US10954232B2, “Pyrazole derivative as ALK5 inhibitor and uses thereof” (HANMI PHARMACEUTICAL CO., LTD., priority 2016, dated 2021).

Target: T1, ALK5 kinase (Homo sapiens, UniProt P36897)
T1 construct: GST; purchased Thermo Fisher Scientific Solutions
T1 sequence (P36897 34-503): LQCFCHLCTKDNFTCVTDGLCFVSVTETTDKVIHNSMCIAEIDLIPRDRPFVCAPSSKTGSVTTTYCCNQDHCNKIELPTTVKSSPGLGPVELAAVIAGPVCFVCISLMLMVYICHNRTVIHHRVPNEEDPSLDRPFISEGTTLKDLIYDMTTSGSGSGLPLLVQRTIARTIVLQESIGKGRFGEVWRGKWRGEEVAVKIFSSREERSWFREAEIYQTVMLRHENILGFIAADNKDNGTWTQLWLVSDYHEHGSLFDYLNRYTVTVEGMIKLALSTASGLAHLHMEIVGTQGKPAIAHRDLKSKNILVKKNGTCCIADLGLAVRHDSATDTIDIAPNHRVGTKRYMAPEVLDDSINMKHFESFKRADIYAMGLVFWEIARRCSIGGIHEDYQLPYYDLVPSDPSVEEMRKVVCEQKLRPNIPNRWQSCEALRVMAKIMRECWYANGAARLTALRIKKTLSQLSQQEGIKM
Test: Activity inhibition test on ALK5 enzyme (LanthaScreen Eu binding kinase assay)
Details: kinase tracer 178, 60 minutes at room temperature
Procedure, shortened: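 IC50 is the concentration giving 50% inhibition relative to control, taken from fluorescence after 60 min stirring at room temperature. Final mix held kinase 5 nM, Eu-GST binding antibody 2 nM and tracer 178 10 nM. Compounds were serially diluted from 1 μM to 0.0001 μM.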

Cc1cccc(-n2nc(C(=O)Nc3ccc(O)cc3)cc2-c2ccc3ncsc3c2)n1 [Example 83, 5-(benzo[d]thiazol-6-yl)-N-(4-hydroxyphenyl)-1-(6-methylpyridin-2-yl)-1H-pyrazole-3-carboxyamide]
IC50: 0.7 nM

Cc1cccc(-n2nc(C(=O)Nc3cccc(CO)c3)cc2-c2ccc3ncsc3c2)n1 [Example 84, 5-(benzo[d]thiazol-6-yl)-N-(3-(hydroxymethyl)phenyl)-1-(6-methylpyridin-2-yl)-1H-pyrazole-3-carboxyamide]
IC50: 3.9 nM

Cc1cccc(-n2nc(C(=O)Nc3ccc(CO)cc3)cc2-c2ccc3ncsc3c2)n1 [Example 85, 5-(benzo[d]thiazol-6-yl)-N-(4-(hydroxymethyl)phenyl)-1-(6-methylpyridin-2-yl)-1H-pyrazole-3-carboxyamide]
IC50: 3.8 nM

Cc1cccc(-n2nc(C(=O)Nc3ccc(N)cc3)cc2-c2ccc3ncsc3c2)n1 [Example 86, N-(4-aminophenyl)-5-(benzo[d]thiazol-6-yl)-1-(6-methylpyridin-2-yl)-1H-pyrazole-3-carboxyamide]
IC50: 1.1 nM

CCCCNc1ccc(NC(=O)c2cc(-c3ccc4ncsc4c3)n(-c3cccc(C)n3)n2)cc1 [Example 87, 5-(benzo[d]thiazol-6-yl)-N-(4-(butylamino)phenyl)-1-(6-methylpyridin-2-yl)-1H-pyrazole-3-carboxyamide]
IC50: 9.1 nM

Cc1cccc(-n2nc(C(=O)Nc3ccc(NC4CC4)cc3)cc2-c2ccc3ncsc3c2)n1 [Example 88, 5-(benzo[d]thiazol-6-yl)-N-(4-(cyclopropylamino)phenyl)-1-(6-methylpyridin-2-yl)-1H-pyrazole-3-carboxyamide]
IC50: 3.5 nM

Cc1cccc(-n2nc(C(=O)Nc3ccc(S(C)(=N)=O)cc3)cc2-c2ccc3ncsc3c2)n1 (stereo not shown) [Example 89, 5-(benzo[d]thiazol-6-yl)-1-(6-methylpyridin-2-yl)-N-(4-(S-methylsulfonimidoyl)phenyl)-1H-pyrazole-3-carboxyamide]
IC50: 3.5 nM

COc1ccccc1NC(=O)c1cc(-c2ccc3ncnn3c2)n(-c2cccc(C)n2)n1 [Example 90, 5-([1,2,4]triazolo[1,5-α]pyridin-6-yl)-N-(2-methoxyphenyl)-1-(6-methylpyridin-2-yl)-1H-pyrazole-3-carboxyamide]
IC50: 5 nM

COc1cccc(NC(=O)c2cc(-c3ccc4ncnn4c3)n(-c3cccc(C)n3)n2)c1 [Example 91, 5-([1,2,4]triazolo[1,5-α]pyridin-6-yl)-N-(3-methoxyphenyl)-1-(6-methylpyridin-2-yl)-1H-pyrazole-3-carboxyamide]
IC50: 10 to 100 nM

COc1ccccc1NC(=O)c1cc(-c2ccc3ncnn3c2)n(-c2cccc(C)n2)n1 [Example 92, 5-([1,2,4]triazolo[1,5-α]pyridin-6-yl)-N-(2-methoxyphenyl)-1-(6-methylpyridin-2-yl)-1H-pyrazole-3-carboxyamide]
IC50: 10 to 100 nM

Cc1cccc(-n2nc(C(=O)Nc3ccc(O)cc3)cc2-c2ccc3ncnn3c2)n1 [Example 93, 5-([1,2,4]triazolo[1,5-α]pyridin-6-yl)-N-(4-hydroxyphenyl)-1-(6-methylpyridin-2-yl)-1H-pyrazole-3-carboxyamide]
IC50: 3.9 nM

Cc1cccc(-n2nc(C(=O)Nc3ccc(OC(C)C)cc3)cc2-c2ccc3ncnn3c2)n1 [Example 94]
IC50: ~10 nM

COCCOc1ccc(NC(=O)c2cc(-c3ccc4ncnn4c3)n(-c3cccc(C)n3)n2)cc1 [Example 95, 5-([1,2,4]triazolo[1,5-α]pyridin-6-yl)-N-(4-(2-methoxyethoxy)phenyl)-1-(6-methylpyridin-2-yl)-1H-pyrazole-3-carboxyamide]
IC50: 25 nM

Cc1cccc(-n2nc(C(=O)Nc3ccc4c(c3)OCO4)cc2-c2ccc3ncnn3c2)n1 [Example 96, 5-([1,2,4]triazolo[1,5-α]pyridin-6-yl)-N-(benzo[d][1,3]dioxol-5-yl)-1-(6-methylpyridin-2-yl)-1H-pyrazole-3-carboxyamide]
IC50: 3.5 nM

COc1ccc(NC(=O)c2cc(-c3ccc4ncnn4c3)n(-c3cccc(C)n3)n2)c(F)c1 [Example 97, 5-([1,2,4]triazolo[1,5-α]pyridin-6-yl)-N-(2-fluoro-4-methoxyphenyl)-1-(6-methylpyridin-2-yl)-1H-pyrazole-3-carboxyamide]
IC50: 10 to 100 nM

COc1ccc(NC(=O)c2cc(-c3ccc4ncnn4c3)n(-c3cccc(C)n3)n2)cc1F [Example 98, 5-([1,2,4]triazolo[1,5-α]pyridin-6-yl)-N-(3-fluoro-4-methoxyphenyl)-1-(6-methylpyridin-2-yl)-1H-pyrazole-3-carboxyamide]
IC50: 5.3 nM

Cc1cccc(-n2nc(C(=O)Nc3ccccc3OC(F)(F)F)cc2-c2ccc3ncnn3c2)n1 [Example 99, 5-([1,2,4]triazolo[1,5-α]pyridin-6-yl)-1-(6-methylpyridin-2-yl)-N-(2-(trifluoromethoxy)phenyl)-1H-pyrazole-3-carboxyamide]
IC50: ~10 nM

Cc1cccc(-n2nc(C(=O)Nc3cccc(OC(F)(F)F)c3)cc2-c2ccc3ncnn3c2)n1 [Example 100, 5-([1,2,4]triazolo[1,5-α]pyridin-6-yl)-1-(6-methylpyridin-2-yl)-N-(3-(trifluoromethoxy)phenyl)-1H-pyrazole-3-carboxyamide]
IC50: 10 to 100 nM

Cc1cccc(-n2nc(C(=O)Nc3ccc(OC(F)(F)F)cc3)cc2-c2ccc3ncnn3c2)n1 [Example 101, 5-([1,2,4]triazolo[1,5-α]pyridin-6-yl)-1-(6-methylpyridin-2-yl)-N-(4-(trifluoromethoxy)phenyl)-1H-pyrazole-3-carboxyamide]
IC50: 10 to 100 nM

Cc1cccc(-n2nc(C(=O)Nc3cccc(N(C)C)c3)cc2-c2ccc3ncnn3c2)n1 [Example 102, 5-([1,2,4]triazolo[1,5-α]pyridin-6-yl)-N-(3-(dimethylamino)phenyl)-1-(6-methylpyridin-2-yl)-1H-pyrazole-3-carboxyamide]
IC50: 10 to 100 nM

Cc1cccc(-n2nc(C(=O)Nc3ccc(N)cc3)cc2-c2ccc3ncnn3c2)n1 [Example 103, 5-([1,2,4]triazolo[1,5-α]pyridin-6-yl)-N-(4-aminophenyl)-1-(6-methylpyridin-2-yl)-1H-pyrazole-3-carboxyamide]
IC50: 9.1 nM

Cc1cccc(-n2nc(C(=O)Nc3ccc(N(C)C)cc3)cc2-c2ccc3ncnn3c2)n1 [Example 104, 5-([1,2,4]triazolo[1,5-α]pyridin-6-yl)-N-(4-(dimethylamino)phenyl)-1-(6-methylpyridin-2-yl)-1-H-pyrazole-3-carboxyamide]
IC50: 7 nM

Cc1cccc(-n2nc(C(=O)Nc3ccc(N4CCCC4)cc3)cc2-c2ccc3ncnn3c2)n1 [Example 105, 5-([1,2,4]triazolo[1,5-α]pyridin-6-yl)-N-(4-(pyrrolidin-1-yl)phenyl)-1-(6-methylpyridin-2-yl)-1H-pyrazole-3-carboxyamide]
IC50: 7 nM

Cc1cccc(-n2nc(C(=O)Nc3ccc(N(C)CCN(C)C)cc3)cc2-c2ccc3ncnn3c2)n1 [Example 106, 5-([1,2,4]triazolo[1,5-α]pyridin-6-yl)-N-(4-((2-(dimethylamino)ethyl)(methyl)amino)phenyl)-1-(6-methylpyridin-2-yl)-1H-pyrazole-3-carboxyamide]
IC50: 14 nM

Cc1cccc(-n2nc(C(=O)Nc3ccc(N4CCN(C)CC4)cc3)cc2-c2ccc3ncnn3c2)n1 [Example 107, 5-([1,2,4]triazolo[1,5-α]pyridin-6-yl)-N-(4-(4-methylpiperazin-1-yl)phenyl)-1-(6-methylpyridin-2-yl)-1H-pyrazole-3-carboxyamide]
IC50: 10 to 100 nM

CC(=O)N1CCN(c2ccc(NC(=O)c3cc(-c4ccc5ncnn5c4)n(-c4cccc(C)n4)n3)cc2)CC1 [Example 108, 5-([1,2,4]triazolo[1,5-α]pyridin-6-yl)-N-(4-(4-acetylpiperazin-1-yl)phenyl)-1-(6-methylpyridin-2-yl)-1H-pyrazole-3-carboxyamide]
IC50: ~10 nM

CC(=O)Nc1ccc(NC(=O)c2cc(-c3ccc4ncnn4c3)n(-c3cccc(C)n3)n2)cc1 [Example 110, 5-([1,2,4]triazolo[1,5-α]pyridin-6-yl)-N-(4-acetamidophenyl)-1-(6-methylpyridin-2-yl)-1H-pyrazole-3-carboxyamide]
IC50: 10 to 100 nM

Cc1cccc(-n2nc(C(=O)Nc3ccc(CN(C)C)cc3)cc2-c2ccc3ncnn3c2)n1 [Example 111, 5-([1,2,4]triazolo[1,5-α]pyridin-6-yl)-N-(4-((dimethylamino)methyl)phenyl)-1-(6-methylpyridin-2-yl)-1H-pyrazole-3-carboxyamide]
IC50: > 100 nM

CNC(=O)c1ccccc1NC(=O)c1cc(-c2ccc3ncnn3c2)n(-c2cccc(C)n2)n1 [Example 112, 5-([1,2,4]triazolo[1,5-α]pyridin-6-yl)-N-(2-(methylcarbamoyl)phenyl)-1-(6-methylpyridin-2-yl)-1H-pyrazole-3-carboxyamide]
IC50: 10 to 100 nM

CNC(=O)c1ccc(NC(=O)c2cc(-c3ccc4ncnn4c3)n(-c3cccc(C)n3)n2)cc1 [Example 113, 5-([1,2,4]triazolo[1,5-α]pyridin-6-yl)-N-(4-(methylcarbamoyl)phenyl)-1-(6-methylpyridin-2-yl)-1H-pyrazole-3-carboxyamide]
IC50: 10 to 100 nM

Cc1cccc(-n2nc(C(=O)Nc3ccccc3)cc2-c2ccc3ncnn3c2)n1 [Example 114, 5-([1,2,4]triazolo[1,5-α]pyridin-6-yl)-1-(6-methylpyridin-2-yl)-N-phenyl-1H-pyrazole-3-carboxyamide]
IC50: 9.5 nM
